Numbers after ± are expanded uncertainties.
Conditions: Crystal; DTA

SMILES | Triple point temperature
CC(F)F [1,1-difluoroethane] | 154.3 ± 0.5 K
O=C=O [carbon dioxide] | 216.56 ± 0.5 K
[N-]=[N+]=O [nitrous oxide] | 181.99 ± 0.5 K
